Experiments:
[1] = molecular target: Procathepsin L (Homo sapiens, UniProt P07711); assay: Inhibition of cathepsin L
[2] = molecular target: Cathepsin B (Homo sapiens, UniProt P07858); assay: Inhibition of cathepsin B
[3] = molecular target: Prostaglandin G/H synthase 1 (Homo sapiens, UniProt P23219); assay: Inhibition of COX1
[4] = molecular target: T1, Prostaglandin G/H synthase 2 (Homo sapiens, UniProt P35354); assay: Inhibition of COX2
T1 sequence (P35354 whole entry): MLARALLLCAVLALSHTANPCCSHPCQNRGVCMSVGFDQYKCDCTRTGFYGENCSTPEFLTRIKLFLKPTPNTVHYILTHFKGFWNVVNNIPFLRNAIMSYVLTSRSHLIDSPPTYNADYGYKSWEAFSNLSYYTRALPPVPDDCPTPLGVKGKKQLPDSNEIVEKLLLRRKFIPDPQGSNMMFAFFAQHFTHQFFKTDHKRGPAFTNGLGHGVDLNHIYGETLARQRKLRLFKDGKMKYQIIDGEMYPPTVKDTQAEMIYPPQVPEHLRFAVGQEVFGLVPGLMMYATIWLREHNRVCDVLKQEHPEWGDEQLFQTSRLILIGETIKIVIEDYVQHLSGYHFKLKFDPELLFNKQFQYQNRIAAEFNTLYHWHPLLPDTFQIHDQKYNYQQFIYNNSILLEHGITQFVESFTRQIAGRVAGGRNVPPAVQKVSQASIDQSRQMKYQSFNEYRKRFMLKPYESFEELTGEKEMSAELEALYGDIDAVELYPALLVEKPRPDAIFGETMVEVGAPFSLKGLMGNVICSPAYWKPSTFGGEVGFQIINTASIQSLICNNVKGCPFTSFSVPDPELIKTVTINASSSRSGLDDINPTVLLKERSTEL

Procathepsin L, sequence (P07711 whole entry): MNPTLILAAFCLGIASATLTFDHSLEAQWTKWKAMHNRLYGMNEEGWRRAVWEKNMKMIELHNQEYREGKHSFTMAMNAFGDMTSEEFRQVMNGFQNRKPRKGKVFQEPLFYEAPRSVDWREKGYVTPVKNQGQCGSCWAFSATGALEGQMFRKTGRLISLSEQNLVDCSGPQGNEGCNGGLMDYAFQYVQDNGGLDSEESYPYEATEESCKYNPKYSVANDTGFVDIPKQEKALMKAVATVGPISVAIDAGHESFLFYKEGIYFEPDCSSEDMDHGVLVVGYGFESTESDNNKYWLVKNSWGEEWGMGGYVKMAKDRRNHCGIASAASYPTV
Prostaglandin G/H synthase 1, sequence (P23219 whole entry): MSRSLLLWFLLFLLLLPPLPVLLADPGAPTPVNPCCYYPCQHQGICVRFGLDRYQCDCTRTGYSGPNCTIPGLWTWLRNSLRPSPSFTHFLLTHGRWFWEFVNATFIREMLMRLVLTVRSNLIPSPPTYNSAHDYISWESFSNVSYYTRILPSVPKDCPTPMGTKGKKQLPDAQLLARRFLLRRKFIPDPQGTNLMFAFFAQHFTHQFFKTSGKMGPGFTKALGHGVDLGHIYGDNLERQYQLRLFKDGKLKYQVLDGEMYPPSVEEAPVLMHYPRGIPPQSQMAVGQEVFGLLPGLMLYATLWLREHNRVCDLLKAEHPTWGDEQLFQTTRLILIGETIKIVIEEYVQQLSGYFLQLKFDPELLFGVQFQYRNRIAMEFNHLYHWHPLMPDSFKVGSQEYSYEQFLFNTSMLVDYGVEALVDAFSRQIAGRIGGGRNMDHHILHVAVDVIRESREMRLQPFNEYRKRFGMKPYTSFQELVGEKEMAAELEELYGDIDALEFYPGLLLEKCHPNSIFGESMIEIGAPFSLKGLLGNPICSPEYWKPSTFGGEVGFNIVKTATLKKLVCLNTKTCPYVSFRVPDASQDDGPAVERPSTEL

| IC50 [1] [µM] | IC50 [2] [µM] | IC50 [3] [µM] | IC50 [4] [µM] | SMILES |
| --- | --- | --- | --- | --- |
| 3.6 | 102 |  |  | N#CCNC(=O)C1CCCCC1CSc1cccc(Cl)c1 (stereo unspecified) |
|  |  | 0.007 | > 10 | Cc1ccc(Nc2c(F)cccc2Cl)c(CC(=O)O)c1 [LUMIRACOXIB] |
| 26 | 5.3 |  |  | N#CCNC(=O)C1CCCCC1CSc1ccccc1 (stereo unspecified) |

From ChEMBL document CHEMBL2034973, “Exploring activity cliffs in medicinal chemistry” (J Med Chem, 2012)
